According to paper PMC12274739, “Differential substrate degradation by super-degron: EGFP in wild-type mouse cells, PD-1 requires CRBN humanization” (iScience, 2025):
Several values for one entry are separate records, joined by “and”; a condition that tells them apart may be missing. Equal values may be shown once. Read-outs that look alike come from different tables or passages of the source.

Legend:
[1] = tested on: mouse PD-1-mCherry-IKZF minimal tag; assay: Degradation of IKZF minimal-tagged mouse PD-1-mCherry in Jurkat cells; type: cell-based, human; details: 24 h
Text: To identify a tag that could efficiently knock down mouse PD-1, we connected various degron tags to the C-terminus of PD-1, including IKZF1/3, Sall4, ZFP91, and SD, and generated Jurkat human T cell lymphoma cell lines that stably expressed the mouse PD-1-degron tag (Figure 1A). As reported previously,[21]^,[22]^,[23] in mouse CRBN, the 391st amino acid corresponding to Val-388 of human CRBN is Ile, which causes a protrusion when a neo substrate binds to CRBN, resulting in a weaker affinity than in human CRBN (Figure 1B). Therefore, a human cell line was used because it was thought that mouse CRBN would not degrade SD by thalidomide analogs. […] We also analyzed the degradation of total proteins using mCherry.
Figure 1 Degradation of various degron-tagged mouse PD-1 in human Jurkat cell line (A) The protein construction of PD-1 tagged with mCherry and a degron tag. […] Valine 388 in human CRBN (red on the left) is replaced by isoleucine in mouse CRBN (gray on the right, over the red valine), causing a conflict between CRBN and IKZF1/3 (yellow ellipse). The stretch of the methyl group in isoleucine causing the conflict is indicated by a yellow arrow. (C) The amount of PD-1 and mCherry fused to IKZF minimal (blue, n = 1), IKZF full length (light blue, n = 1), Sall4 (orange, n = 1) or super degron (SD; red, n = 3) tags in Jurkat human T cell lymphomas 24 h after the addition of pomalidomide (POM) measured by flow cytometry. […] (C and D) The amount was standardized with the sample to which no reagent was added as 1. Concentrations of reagents were 0 (−), 5, 10, and 20 μM for IKZF minimal, IKZF full-length, and Sall4 tags and 0 (−), 0.5, 5 μM for SD tag. The dots indicate the results of the experiment for each of samples.

[2] = tested on: mouse PD-1-mCherry-Sall4 tag; type: cell-based, human; details: Jurkat, 24 h
[3] = tested on: Ba/F3 mouse pro-B cell line; parameters: method as in PMID 38484051; details: cited from earlier work
SD-EGFP (N-terminal SD) [4] = target: SD-EGFP (N-terminal SD) (Aequorea victoria, UniProt P42212, F64L/H231L/S65T); type: cell-based, mouse; details: transient, 24 h; for DC50: read-out: DC50, SD-EGFP
SD-EGFP (N-terminal SD) [5] = type: cell-based, mouse; details: Crbn+/I391V mESCs (h/mCRBN), transient, 24 h
SD-EGFP = SD-EGFP (Mus musculus, UniProt P42212+Q8C7D2, F64L/H231L/INS1V/S65T, form not given); type: cell-based
EGFP-SD [6] = assay: Degradation of stably expressed EGFP-SD in human cell lines (hESCs, HEK293, Jurkat); type: cell-based; details: for bottom vs top, EGFP-SD: IBR up to 1 μM
EGFP-SD [7] = type: cell-based, mouse; details: for Plateau, EGFP-SD degradation: control = 1; for K, EGFP-SD degradation: one phase decay
SD-tagged EGFP = assay: Degradation of SD-tagged EGFP in Crbn−/− (CRBN-KO) mESCs; type: cell-based, mouse; details: IBR up to 1 μM, 24 h
[8] = Histopathological examination of organs; type: in vivo, mouse; details: Pdcd1SD/SD/CrbnI391V/I391V mice with MC-38 inoculation and IBR treatment
Description: The important functions of PD-1 are to suppress autoimmunity, and depletion or suppression of PD-1 leads to autoimmune diseases.[37]
Mice were sacrificed under deep anesthesia then all organs were isolated and immediately immersed in 10% buffered neutral formalin. After fixation for 48 h, tissues were processed as formalin-fixed paraffin-embedded blocks and sliced into 3 μmμ sections, followed by hematoxylin and eosin (HE) staining, periodic acid Schiff (PAS) staining, and Elastica-Masson Goldner staining. All slides were analyzed by a skilled pathologist (T.M.). Glomerular lesions were evaluated using the histological glomerular index, and other organs were scored from 0 (normal) to 3 (necrotic, severe organ injury).
Figure S11 Histological analysis of super degron tag-knockin mice for autoimmune […]
Representative histological manifestations of kidney (A-C), liver (D-F) and large intestine (G-I) of Pdcd1SD/SD/CrbnI391V/I391V mice (A, D and G), Pdcd1+/+/CrbnI391V/I391V mice (B, E and H) and […]
Liver and large intestine manifested normal histological findings in each group (A-C: PAS stain, d-i: HE stain, Bar = 25 µm in A-C, 100 µm in D-I).
(1 picture or pasted object on this page, not shown here)
Figure S12 Glomerular index of super degron tag-knockin mice
Glomerular index of each group of mice. […]
higher index nevertheless there were no statistically significant differences among

[9] = parameters: method as in PMID 32969202; details: humans, cited from earlier work
[10] = mouse wild-type cell lines, independent of IBR concentration

SMILES: Nc1cccc2c1C(=O)N(C1CCC(=O)NC1=O)C2=O (centres unmarked) [POM, pomalidomide]
- LogDC50, mCherry (mC) ([1]; mCherry): 0.04896 µM
- Bottom, mCherry (mC) ([1]; mCherry, no reagent = 1): 0.8201
- LogDC50, PD-1 (FITC) ([1]; surface PD-1): 0.1515 µM
- Bottom, PD-1 (FITC) ([1]; surface PD-1, no reagent = 1): 0.53 and 0.5295
- Bottom, PD-1 (FITC) ([2]; SALL4 tag, surface PD-1, no reagent = 1): 0.9333
- effect on protein levels ([2]; Sall4 tag): did not reduce protein levels
- proteins reduced [3]: very few proteins

SMILES: O=C1CC[C@H](N2Cc3c(OCc4ccc(CN5CCOCC5)cc4)cccc3C2=O)C(=O)N1 [IBR, iberdomide]
- Bottom, SD-EGFP (EGFP/mCherry MFI) (SD-EGFP (N-terminal SD) [4]; B6J-S1 mESCs): 0.09529
- bottom vs top, SD-EGFP (SD-EGFP (N-terminal SD) [4]; B6J-S1 mESCs): 0.24
- Bottom, SD-EGFP (EGFP/mCherry MFI) (SD-EGFP (N-terminal SD) [4]; Crbn+/+ mESCs (mCRBN)): 0.113
- bottom vs top, SD-EGFP (SD-EGFP (N-terminal SD) [4]; Crbn+/+ mESCs (mCRBN)): 0.25
- Bottom, SD-EGFP (EGFP/mCherry MFI) (SD-EGFP (N-terminal SD) [4]; CrbnI391V/I391V mESCs (hCRBN)): 0.04953
- bottom vs top, SD-EGFP (SD-EGFP (N-terminal SD) [4]; CrbnI391V/I391V mESCs (hCRBN)): 0.13
- DC50 (SD-EGFP (N-terminal SD) [4]; B6J-S1 mESCs): 1820 pM
- DC50 (SD-EGFP (N-terminal SD) [4]; Crbn+/+ mESCs (mCRBN)): 6060 pM
- DC50 (SD-EGFP (N-terminal SD) [4]; CrbnI391V/I391V mESCs (hCRBN)): 63.7 pM
- Bottom, SD-EGFP (EGFP/mCherry MFI) (SD-EGFP (N-terminal SD) [5]): 0.07126
- DC50 (SD-EGFP (N-terminal SD) [5]): 78.4 pM
- bottom vs top, SD-EGFP (SD-EGFP (N-terminal SD) [5]): 0.18
- bottom vs top, SD-EGFP (SD-EGFP): 0.186 and 0.153 and 0.146 and 0.15 and 0.19
- level to which SD-EGFP was suppressed (SD-EGFP): 20%
- Bottom, EGFP-SD (EGFP-SD [6]; HEK293, stable): 0.01028
- DC50 (EGFP-SD [6]; HEK293, stable): 5.45 pM
- bottom vs top, EGFP-SD (EGFP-SD [6]; HEK293, stable): 0.009
- Bottom, EGFP-SD (EGFP-SD [6]; Jurkat, stable): 0.02414
- DC50 (EGFP-SD [6]; Jurkat, stable): 11.8 pM
- bottom vs top, EGFP-SD (EGFP-SD [6]; Jurkat, stable): 0.024
- Bottom, EGFP-SD (EGFP-SD [6]; human ESCs, stable): 0.007522
- DC50 (EGFP-SD [6]; human ESCs, stable): 2.78 pM
- bottom vs top, EGFP-SD (EGFP-SD [6]; human ESCs, stable): 0.005
- Tau, EGFP-SD degradation (EGFP-SD [7]; EL4, 0.01 µM IBR): 0.5057
- Plateau, EGFP-SD degradation (EGFP-SD [7]; EL4, 0.01 µM IBR): 0.106 and 0.11
- K, EGFP-SD degradation (EGFP-SD [7]; EL4, 0.01 µM IBR): 1.978
- Tau, EGFP-SD degradation (EGFP-SD [7]; EL4, 0.1 µM IBR): 0.4779
- Plateau, EGFP-SD degradation (EGFP-SD [7]; EL4, 0.1 µM IBR): 0.0948
- K, EGFP-SD degradation (EGFP-SD [7]; EL4, 0.1 µM IBR): 2.093
- Tau, EGFP-SD degradation (EGFP-SD [7]; EL4, 1 µM IBR): 0.4762
- Plateau, EGFP-SD degradation (EGFP-SD [7]; EL4, 1 µM IBR): 0.09035
- K, EGFP-SD degradation (EGFP-SD [7]; EL4, 1 µM IBR): 2.1
- Tau, EGFP-SD degradation (EGFP-SD [7]; NIH/3T3, 0.01 µM IBR): 0.5217
- Plateau, EGFP-SD degradation (EGFP-SD [7]; NIH/3T3, 0.01 µM IBR): 0.1206 and 0.12
- K, EGFP-SD degradation (EGFP-SD [7]; NIH/3T3, 0.01 µM IBR): 1.917
- Tau, EGFP-SD degradation (EGFP-SD [7]; NIH/3T3, 0.1 µM IBR): 0.4536
- Plateau, EGFP-SD degradation (EGFP-SD [7]; NIH/3T3, 0.1 µM IBR): 0.09879
- K, EGFP-SD degradation (EGFP-SD [7]; NIH/3T3, 0.1 µM IBR): 2.205
- Tau, EGFP-SD degradation (EGFP-SD [7]; NIH/3T3, 1 µM IBR): 0.4422
- Plateau, EGFP-SD degradation (EGFP-SD [7]; NIH/3T3, 1 µM IBR): 0.0887
- K, EGFP-SD degradation (EGFP-SD [7]; NIH/3T3, 1 µM IBR): 2.261
- Tau, EGFP-SD degradation (EGFP-SD [7]; mESCs, 0.01 µM IBR): 0.9013
- Plateau, EGFP-SD degradation (EGFP-SD [7]; mESCs, 0.01 µM IBR): 0.1599 and 0.16
- K, EGFP-SD degradation (EGFP-SD [7]; mESCs, 0.01 µM IBR): 1.11
- Tau, EGFP-SD degradation (EGFP-SD [7]; mESCs, 0.1 µM IBR): 0.8006
- Plateau, EGFP-SD degradation (EGFP-SD [7]; mESCs, 0.1 µM IBR): 0.1092
- K, EGFP-SD degradation (EGFP-SD [7]; mESCs, 0.1 µM IBR): 1.249
- Tau, EGFP-SD degradation (EGFP-SD [7]; mESCs, 1 µM IBR): 0.8069
- Plateau, EGFP-SD degradation (EGFP-SD [7]; mESCs, 1 µM IBR): 0.09822
- K, EGFP-SD degradation (EGFP-SD [7]; mESCs, 1 µM IBR): 1.239
- time after which EGFP-SD expression was minimal (EGFP-SD [7]; mESCs, NIH/3T3, EL4): 6 h
- time to halve the amount of EGFP-SD (EGFP-SD [7]; [10]): 20 to 40 min
- time to reduce EGFP-SD to 10% (EGFP-SD [7]; [10]): approximately 3 h
- degradation of SD-tagged EGFP (SD-tagged EGFP): did not occur
- histopathological organ injury [8]: no significant organ injury
- IBR present after 24 h, of the maximum concentration ([9]; multiple doses): about 20%
- time of serum concentration peak ([9]; oral, single and multiple once-daily doses): 3 h
- serum concentration with multiple doses compared to a single dose [9]: doubles
